Measured values as given in patent publication US20130096054A1, “LATENT HUMAN IMMUNODEFICIENCY VIRUS REACTIVIATION” (priority 2010, published 2013).
Where “and” joins values, the source holds several entries; their conditions need not be identical. Identical values can stand only once. *1 amine or outer side, *2 acyl side, *3 side chain or, on linkers, in order; H or OH if unused. Where a SMILES comes first, the peptide text is derived from it. Bridges are numbered along the chain shown (N, C = ends). Roman numbers before positions name the chains, in order. [ ]: non-standard residue; d: D form. Actinocin(9to1) = Cc1c2oc3c(C)ccc(C(=O)[*:1])c3nc-2c(C(=O)[*:2])c(N)c1=O; NMeV = CN[C@H](C(=O)O)C(C)C; Sar = CNCC(=O)O

Legend:
[1] = system: latently HIV-1 infected J89GFP T cells; test: HIV-1 reactivation in latently HIV-1 infected J89GFP T cells (flow cytometry / HTS); format: cell-based
Experimental: (§1) Infection levels in the cell cultures were monitored by flow cytometric (FCM) analysis of GFP expression. FCM analysis was performed on a GUAVA EasyCyte (GUAVA Technologies, Inc.; Millipore; Billerica, Mass.) and a BD FACSCalibur or a LSR11 (Becton & Dickinson; Franklin Lakes, N.J.). Cell sorting experiments were performed using a FACSAria™ Flow Cytometer (Becton&Dickinson). Data analysis was performed using either CellQuest (Becton&Dickinson) or GUAVA Express (GUAVA Technologies, Inc.).

[2] = system: latently HIV-1 infected CA5 T cells
Experimental: CA5 T cells were pretreated with increasing concentrations of dactinomycin (DM) (FIG. 11A), the DNA intercalator daunorubicin (DR) (FIG. 11B), or the transcription inhibitors DRB (FIG. 11 C) and α-amanitin (FIG. 11D) (concentrations indicated). The cells were then left unstimulated (white circles) or activated with a sub-optimal concentration of HRF (black circles). Reactivation levels were determined as the percentage of GFP-positive cells 24 hours after stimulation. Viability of the cells correlates with the size of the symbol (size range adjusted to 5-95%).
Infection levels in the cell cultures were monitored by flow cytometric analysis of EGFP expression. Flow cytometric analysis was performed on a GUAVA EasyCyte (Millipore; Billerica, Mass.), or a LSRII (Becton & Dickinson; Franklin Lakes, N.J.).
Bacteria from various sources were isolated on TSA II agar plates containing 5% sheep blood. Bacterial isolates were then grown in RPMI 1640 medium supplemented with 10% FBS. After two days of incubation at 37° C. bacteria were pelleted and resuspended in RPMI medium to an optical density (OD600) of 8, aliquoted and frozen at −80° C. Unless otherwise indicated, Massilia timonae was grown in RPMI 1640 medium supplemented with 10% FBS. Typically, medium was inoculated with Massilia timonae from frozen stocks to an OD600 of 0.01. After 48 hours at 37° C., the culture was centrifuged at 3200 g to separate bacteria from the culture medium. Bacteria were resuspended in fresh medium to an OD600 of 8 and frozen to be used as references and stock cultures. The supernatant was then centrifuged at 10,000 g for 20 minutes and sterilized by passage through an 0.2 μm PVDF filter with low protein binding ability. HRF activity was determined by its ability to reactivate latent HIV-1 infection in CA5 cells. Only supernatants of which 6 μl reactivated infection in at least 60% of CA5 cells were used to study HRF properties.
as §1
To identify the optimal concentration of dactinomycin, CA5 T cells were pretreated with increasing concentrations of dactinomycin (0.0001 and 1 μg/ml), and then left untreated or stimulated with a sub-optimal concentration of HRF or TNF-α. […] Twenty four hours after activator addition, levels of HIV-1 reactivation were determined as the percentage of GFP-positive cells using flow cytometric analysis, which allowed for the simultaneous determination of cell viability.

[3] = system: latently HIV-2 infected J2574 reporter T cells (HIV-2 7312A); test: Reactivation of latent HIV-2 infection in J2574 reporter T cells; format: cell-based
Experimental: J2574 reporter T cells were infected with HIV-2 7312A and a latently infected cell population was established (>90% latently infected cells). The cell population was then pretreated with varying concentrations of dactinomycin (0-8 ng/ml) for 18 hours and then either left untreated (C) or stimulated with a sub-optimal dose of HRF, which by itself triggered reactivation in 10% of the cells. Reactivation levels were determined 24 hours post HRF activation by quantifying the level of GFP-positive cells using flow cytometric analysis.
J2574 reporter T cells were generated by retrovirally transducing Jurkat T cells with a HIV-1 reporter construct (p2574) in which the HIV-1 LTR controls the expression of GFP. The HIV-1 LTR and the GFP gene are separated by a 2,500 base pair (bp) spacer element. Lentiviral particles were produced by transfecting 293T cells with p2574 and supplying gag-pol-rev-tat in trans. VSV-G was used as viral envelope protein. Following lentiviral transduction of Jurkat cells, all cells that spontaneously expressed GFP were removed by cell sorting. The GFP-negative population was then activated with PMA to identify all cells that would harbor an inducible LTR-GFP-LTR integration event. Cells that turned GFP-positive following stimulation were again selected by cell sorting. GFP expression in this population ceased after a few days leaving a population of GFP-negative reporter cells. The amount of founder cells for this population is calculated to represent >50,000 individual integration events.
To determine the ability of dactinomycin to prime a latent HIV-2 infection, a latently HIV-2 infected population of GFP reporter T cells were tested. Briefly, to create the latent HIV-2 infected population, J2574 reporter cells were infected with HIV-2 7312A and a population of latently HIV-2 infected cells was generated by removing the actively infected, GFP-positive cells using a fluorescence activated cell sorter.

[4] = system: chronically actively infected T cell lines JNLG#35 and JNLG#44; test: Active HIV-1 transcription in chronically actively infected GFP-reporter T cells (GFP MCF); format: cell-based; details: 48 hours after addition
Experimental: Changes in HIV-1 transcription levels were determined after 48 hours by measuring GFP mean channel fluorescence intensity (GFP MCF). GFP MCF was plotted over the drug concentration for dactinomycin (FIG. 12A), the DNA intercalators daunorubicin (DM) (FIG. 12B) and rebeccamycin (RM) (FIG. 12C), as well as the transcription inhibitors ICRF-193 (FIG. 12D), DRB (FIG. 12E) and α-amanitin (FIG. 12F). The size of symbols indicates the respective cell viability in the sample (size range adjusted to 5-95%).
For this purpose, each of the compounds was titrated over a relevant range of concentrations on two chronically actively infected T cell lines (JNLG#35 and JNLG#44). These clonal cell lines are infected with a GFP-reporter virus. Forty eight hours after addition of the compounds, the effect of each compound on HIV-1 transcription was determined by flow cytometric analysis quantifying GFP mean channel fluorescence intensity (MCF).

[5] = system: latently HIV-1 infected EF7 cells; test: HIV-1 reactivation in latently HIV-1 infected EF7 T cells (converse sense integration); format: cell-based; details: TNF-α after 4 ng/ml dactinomycin for 18 hours
Experimental: FIGS. 13A-B show the effect of dactinomycin on latent infection as a function of the orientation of integration relative to the direction of host-gene transcription. HIV-1 can integrate in the same transcriptional orientation as the host-gene or in the converse sense. Two latently HIV-1 infected T cell lines, which were determined to have HIV-1 integrated in the same sense orientation (CA5 cells) (FIG. 13A) and in the converse sense orientation (EF7 cells) (FIG. 13B) were used. For either cell line, the host-gene name, the position of integration and the chromosome number is given. For either T cell line, reactivation levels achieved by TNF-α treatment alone or by TNF-α stimulation following pretreatment with 4 ng/ml dactinomycin for 18 hours are shown. Reactivation levels were determined using flow cytometric analysis for GFP expression. The gray dotted line represents maximum achievable reactivation levels using PMA.

[6] = system: latently HIV-1 infected reporter T cell lines (5F3, 8E12, CA5 and 12D4); test: HIV-1 reactivation in latently HIV-1 infected reporter T cell lines (EGFP, flow cytometry); format: cell-based
Experimental: FIGS. 1A and 1B show culture supernatants from Massilia timonae reactivate latent HIV-1 infection. […] Untreated control cells and HRF-treated cells were subjected to flow cytometric analysis to determine enhanced green fluorescent protein (EGFP) expression as a direct and quantitative marker of HIV-1 expression 24 hours post stimulation. FSC/SSC dot plots are represented to evaluate cell viability as a function of changes in the FSC (cell size)—SSC (granularity) phenotype of the cells. FIG. 1B is a histogram showing the reproducibility of the observed HIV-1 reactivation. Three independent preparations of HRF (batches HRF1-3) on four different latently infected T cell lines (5F3, 8E12, CA5 and 12D4) were tested. The percentage of EGFP positive cells following stimulation is depicted in the histogram. Cell culture supernatants of Pseudomonas aeruginosa cultures, grown under similar conditions, were used as specificity controls.

[7] = system: latently HIV-1 infected monocytic THP89GFP cells; test: HIV-1 reactivation in latently HIV-1 infected monocytic THP89GFP cells; format: cell-based
[8] = molecular target: T1, positive transcription elongation factor (P-TEFb), a complex of CDK9 and Cyclin T1 (UniProt P50750 1-372; O60563 1-726); test: glycerol gradient (10-45%) sedimentation of J89GFP cell lysates, Western blot of fractions with anti-CDK9 and anti-HEXIM-1
T1 construct: also called CDK9/CycT1; small complex
T1 sequence (P50750 whole entry, chain 1 of 2): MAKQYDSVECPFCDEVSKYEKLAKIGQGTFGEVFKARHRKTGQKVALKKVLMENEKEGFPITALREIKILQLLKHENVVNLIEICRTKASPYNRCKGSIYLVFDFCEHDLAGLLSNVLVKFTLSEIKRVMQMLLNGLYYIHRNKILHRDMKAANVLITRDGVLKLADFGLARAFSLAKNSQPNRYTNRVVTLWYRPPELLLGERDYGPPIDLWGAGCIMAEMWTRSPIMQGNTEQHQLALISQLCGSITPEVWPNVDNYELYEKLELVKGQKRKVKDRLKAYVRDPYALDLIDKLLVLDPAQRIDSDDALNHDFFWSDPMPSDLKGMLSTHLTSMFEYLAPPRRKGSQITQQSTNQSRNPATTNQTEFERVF
T1 sequence (O60563 whole entry, chain 2 of 2): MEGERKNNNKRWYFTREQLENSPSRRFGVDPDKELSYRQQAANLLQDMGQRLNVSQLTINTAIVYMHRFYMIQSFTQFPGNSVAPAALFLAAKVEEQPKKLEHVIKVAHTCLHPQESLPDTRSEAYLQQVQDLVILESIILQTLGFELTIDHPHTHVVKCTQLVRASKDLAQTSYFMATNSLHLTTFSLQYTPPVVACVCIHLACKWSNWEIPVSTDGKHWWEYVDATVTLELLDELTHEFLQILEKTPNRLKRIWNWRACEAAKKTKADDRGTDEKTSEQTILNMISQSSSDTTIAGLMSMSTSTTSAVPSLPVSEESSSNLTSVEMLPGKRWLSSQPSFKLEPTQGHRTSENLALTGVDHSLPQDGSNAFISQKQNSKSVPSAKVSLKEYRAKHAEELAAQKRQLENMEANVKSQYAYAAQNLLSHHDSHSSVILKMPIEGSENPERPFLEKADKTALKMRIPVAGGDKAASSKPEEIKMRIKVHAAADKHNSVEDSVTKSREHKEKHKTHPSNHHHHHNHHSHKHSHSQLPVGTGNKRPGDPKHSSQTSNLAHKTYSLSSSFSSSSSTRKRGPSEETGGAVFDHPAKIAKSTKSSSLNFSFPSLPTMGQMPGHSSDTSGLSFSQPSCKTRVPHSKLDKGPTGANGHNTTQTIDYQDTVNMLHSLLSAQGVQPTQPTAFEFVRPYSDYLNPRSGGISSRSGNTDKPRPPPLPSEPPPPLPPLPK
Experimental: Each gradient fraction was separated on a 10% SDS-PAGE gel and transferred by Western blot. […] Band densities were determined using ImageJ and are presented as relative band density. […] Band densities were determined using ImageJ and are presented as relative band density.
Ten million J89GFP or CA5 T cells were left untreated or treated with 0.004 μg/mL, […] 1 μg/mL dactinomycin for 18 hours or 1 hour, respectively. Cells were washed twice with cold PBS, then lysed for 30 minutes on ice in lysis buffer (0.5% TritonX100, 20 mM HEPES (pH7.9), 150 mM NaCl, 20 mM KCl, 2 mM MgCl2, 1 mM DTT, 0.2 mM EDTA, and protease inhibitor cocktail (P8340; SIGMA)), followed by centrifugation at 14,000 rpm for 10 minutes. The same amount of protein lysate was fractionated on 5 ml of a 10-45% glycerol gradient in lysis buffer in a SW-Ti55 rotor (Beckman Coulter; Miami, Fla.) for 16 hours at 45,000 rpm. Fractions were resolved on 10% SDS-PAGE and transferred to polyvinylidene fluoride membrane. The antibodies used for Western blotting were rabbit anti-Cdk9 (sc-484; Santa Cruz Biotechnology; Santa Cruz, Calif.) and rabbit anti-HEXIM1 (ab25388; Abcam; Cambridge, Mass.), respectively. […]

Cc1c2oc3c(C)ccc(C(=O)N[C@@H]4C(=O)N[C@H](C(C)C)C(=O)N5CCC[C@H]5C(=O)N(C)CC(=O)N(C)[C@@H](C(C)C)C(=O)O[C@@H]4C)c3nc-2c(C(=O)N[C@@H]2C(=O)N[C@H](C(C)C)C(=O)N3CCC[C@H]3C(=O)N(C)CC(=O)N(C)[C@@H](C(C)C)C(=O)O[C@@H]2C)c(N)c1=O [dactinomycin] (I: T[dV]P[Sar][NMeV] / II: T[dV]P[Sar][NMeV]; ester I:1-I:C, II:1-II:C; linker I:N-II:N via Actinocin(9to1))
priming for reactivation in combination with sub-optimal TNF-α ([1]; 18 hours pretreatment): potently primed latent HIV-1 infection for reactivation
HIV-1 reactivating capacity by itself ([1]; no activator): did not exhibit HIV-1 reactivating capacity by itself
concentration at which it starts to act as an inhibitor of HIV-1 expression and reactivation (onset of drug toxicities) [2]: ≥ 10 ng/mL
priming effects with low concentrations of TNF-α or PMA as reactivating agents [2]: also observed
concentration of optimal priming activity ([2]; 18 hours pretreatment, then sub-optimal HRF or TNF-α): about 4 ng/ml and ~3.18 nM
priming effect, virus integrated in same transcriptional orientation as host-gene ([2]; TNF-α after 4 ng/ml dactinomycin for 18 hours): exerted its priming effect in each integration scenario
priming effect on HIV-1 reactivation by sub-optimal dose of HRF ([2]; pretreatment with increasing concentrations, then sub-optimal HRF): strong priming effect
lowest concentration at which a priming effect was observed ([2]; then sub-optimal HRF or TNF-α): 0.5 ng/mL
concentration range of efficient priming of latent HIV-2 infection ([3]; 18 hours pretreatment, then sub-optimal HRF): 2 to 8 ng/mL
HIV-2 reactivation levels on costimulation ([3]; dactinomycin pretreatment plus sub-optimal HRF): up to 90%
effect on active HIV-1 infection / transcription (GFP MCF) [4]: without boosting active HIV-1 infection
effect on active HIV-1 infection / transcription (GFP MCF) ([4]; listed as Dactinomycin): did not boost active infection, but rather inhibited active infection
priming effect, virus integrated in converse transcriptional orientation [5]: exerted its priming effect in each integration scenario

lipopolysaccharide
reactivation of latent HIV-1 infection [6]: only reactivated HIV-1 infection in the latently HIV-1 infected monocytic THP89GFP cells
reactivation of latent HIV-1 infection [7]: reactivated HIV-1 infection

B1: HEXIM-1 (other, UniProt O94992 1-359, looked up)
chain: MAEPFLSEYQHQPQTSNCTGAAAVQEELNPERPPGAEERVPEEDSRWQSRAFPQLGGRPGPEGEGSLESQPPPLQTQACPESSCLREGEKGQNGDDSSAGGDFPPPAEVEPTPEAELLAQPCHDSEASKLGAPAAGGEEEWGQQQRQLGKKKHRRRPSKKKRHWKPYYKLTWEEKKKFDEKQSLRASRIRAEMFAKGQPVAPYNTTQFLMDDHDQEEPDLKTGLYSKRAAAKSDDTSDDDFMEEGGEEDGGSDGMGGDGSEFLQRDFSETYERYHTESLQNMSKQELIKEYLELEKCLSRMEDENNRLRLESKRLGGDDARVRELELELDRLRAENLQLLTENELHRQQERAPLSKFGD
binding result [8]: binds
